What all share (assay type): functional
One experiment deals with Prevotella intermedia. Description: Antibacterial activity against Prevotella intermedia by CLSI M11-A6 agar dilution method in presence of beta-lactamase inhibitor Sulbactam.
For the next experiment, the system named is Hoylesella oralis. Description: Antibacterial activity against Prevotella oralis by CLSI M11-A6 agar dilution method in presence of beta-lactamase inhibitor Sulbactam.
The test system of experiment [1] is Paraclostridium bifermentans. Briefly: Antibacterial activity against Clostridium bifermentans by CLSI M11-A6 agar dilution method in presence of beta-lactamase inhibitor Sulbactam. (In general: Agar dilution tests growth on a series of plates holding different concentrations.)
The next experiment has as its system Phocaeicola vulgatus. Briefly: Antibacterial activity against Bacteroides vulgatus by CLSI M11-A6 agar dilution method in presence of beta-lactamase inhibitor Sulbactam.

The structures appear in SMILES notation. Where only a bound is given, the exact number is not on record here.

A word on the MIC50: it is the lowest concentration that inhibits either 50% of growth or 50% of the strains tested, depending on the study. For orientation: MIC90 means an inhibitory concentration at the 90% level, which refers to growth in some studies and to a panel of isolates in others. Consider `CC1(C)S[C@@H]2[C@H](NC(=O)[C@H](N)c3ccccc3)C(=O)N2[C@H]1C(=O)O` [AMPICILLIN], for which the MIC50 in the experiment on Prevotella intermedia was not above 0.12 µg/mL; in the experiment on Hoylesella oralis, not above 0.12 µg/mL; in experiment [1], 0.25 µg/mL; with Phocaeicola vulgatus it was 8 µg/mL. Also, the MIC90 in the experiment with Prevotella intermedia worked out at 2 µg/mL; in the experiment on Hoylesella oralis, 2 µg/mL; in experiment [1] it was 1 µg/mL; in the experiment with Phocaeicola vulgatus it was 16 µg/mL.

The record behind these values is ChEMBL document CHEMBL1671662, “In vitro activities of telavancin and six comparator agents against anaerobic bacterial isolates” (2009).
